The record followed here is patent US20040043503A1, “Automatic mass spectrometry analytical system for the quantitative detection of organic toxicant exposure in the human body” (priority 2002, published 2004).

SMILES strings stand for the structures.

A short description of the data set: S-PMA concentration in urine samples from neonates and adults, by automatic mass spectrometry analytical system (on-line C18 cartridge, ESI-MS/MS). In kind it is in vivo, human. As for the experimental part:
The collected urine samples were passed through 0.2 μm filtration membranes. An aliquot of 400 μL of filtered urine was firstly mixed with […] of 20% acetic acid and 100 μL of 1000 μg/L internal standard (IS), N-t-BOC-S-(p-methyl-benyl)-L-cysteine, with a known amount of S-PMA added when spiking experiments were performed, and diluted with 1400 μL of deionized water. From the total volume of 2000 μL, 200 μL of aliquot was injected into the analytical system (FIG. 1) for analysis. No other sample pretreatment procedures were performed or required other than the filtration described above. This can greatly simplify preparation procedures and save time.
Samples were loaded onto the C18 cartridge 2 (particle size 3 μm) by the pump 10 of autosampler 1 (as shown in FIG. 1) using 100% water at 0.6 mL/min, and were washed with 100% water for optimization time of 12 minutes (1.0, 2.0, 3.0, 4.0, 5.0, 6.0, 7.0, 8.0, 10.0, 12.0, 13.0, 14.0). This is to remove highly hydrophilic components of the urine samples to avoid interference with the subsequent detection results of spectrometry 4. The switching unit 3 (valve) was then activated to the Elute position and the sample was eluted with 1.0 mL/min 100% methanol provided by pump 10′ from cartridge 2 into the mass spectrometry 4 for analysis.
The mass spectrometry used in this invention is the API 365 Triple Quadrupole MS/MS.
Using the process described in Embodiment 1 above, this invention was used to establish the optimal experimental mode of quantitative detection of organic toxicant exposure in the human body using an automatic mass spectrometry analytical system. This Embodiment is to analyze the S-PMA concentration in urine samples collected from six neonates and six adults in the same hospital; the results are listed in Table 1. In the automatic mass spectrometry analytical system of this invention, each analysis took less than 18 minutes, and therefore 80 urine samples could be analyzed within 24 hours.

As for `CC(=O)NC(CSc1ccccc1)C(=O)O` (centres unmarked) [S-PMA, S-phenyl mercapturic acid], the “S-PMA” value was found to be 0.560 µg/L (Adult 1, non-smoker); 1.268 µg/L (Adult 2, non-smoker); 1.411 µg/L (Adult 3, non-smoker); 4.196 µg/L (Adult 4, non-smoker); 0.993 µg/L (Adult 5, non-smoker); 1.255 µg/L (Adult 6, non-smoker). Also, the “S-PMA” value turned out to be 0.249 µg/L (Neonate 1); 0.345 µg/L (Neonate 2); 0.322 µg/L (Neonate 3); 0.365 µg/L (Neonate 4); 0.356 µg/L (Neonate 5); 0.348 µg/L (Neonate 6). Also, the “S-PMA Arithmetic Mean” value (six adults, non-smokers) was 1.614 µg/L and the “S-PMA Arithmetic Mean” value (six neonates) stood at 0.331 µg/L.
